Source: US12195437B2, “Lipophenolic flavonoid derivatives useful to reduce carbonyl and oxidative stresses (COS)” (Centre National de la Recherche Scientifique (CNRS), priority 2018, dated 2025)

What was measured:
Type in all cases: cell-based
ARPE-19 cells [1] = assay: Protection of lipophenols against ROS production (DCFDA probe, H2O2); settings: H2O2 600 μM; for increase in ROS compared to non-stressed cells: from 20 μM lipophenol
Description: (§1) ARPE-19 cells (cells from the retinal pigment epithelium) were obtained from ATCC, and were grown following the instructions in Dulbecco's Modified Eagle's Medium (DMEM)/Ham F12 (GIBCO) containing 10% v/v fetal bovine serum (FBS) and 1% v/v penicillin/streptomycin under a humidified air (95%)/CO2 (5%) atmosphere at 37° C. For experimental cell seeding and sub-culturing, cells were dissociated with 0.25% trypsin-EDTA, re-suspended in the culture medium and then plated at 1-3×10^5 cells/mL.
Reactive oxygen species (ROS) were measured in ARPE-19 cells with the probe DCFDA. The cell permeant reagent DCFDA is deacetylated by cellular esterases to […], which can be oxidized by ROS into the fluorophore 2′,7′-dichlorofluorescein (DCF). ARPE-19 cells were plated into black, opaque bottom 96-well plates (4×10^4 cells/well) and cultured for 24 h to reach confluence before drug treatment. The cell cultures were incubated with 2 μM of DCFDA for 45 min in DMEM/F12 medium without phenol red+1% FBS. The cells were rinsed and incubated with medium containing lipophenols at different concentrations (0-80 μM) for 1 h. Then H2O2 was added to a final concentration of 600 μM for 4 h, followed by the measurement of DCF production by fluorescence spectroscopy with excitation wavelength at 485 nm and emission wavelength at 535 nm. Control cells were incubated with DMSO (0.2%)±DCFDA±H2O2. All samples are expressed as percentage of ROS production compared to non-oxidized control cells (normalized at 100% of ROS production).
The lowest percentages of increase will therefore be representative of the most protective derivatives.

ARPE-19 cells [2] = assay: Protection of lipophenols against all-trans-retinal toxicity (anti-carbonyl stress activity, MTT); settings: trans-retinal 15 μM; for cell survival gain (anti-carbonyl stress activity): compared to stressed untreated cells; for anti-carbonyl stress activity (in words): up to 80 μM lipophenol
Description: as §1
(§2) Cell viability was determined by MTT colorimetric assay. Cells were incubated for 2 h with MTT reagent (0.5 mg/mL). During this incubation time, dehydrogenases of living cells reduced MTT to insoluble purple formazan, which was then dissolved in DMSO. The absorbance at 570 nm and 655 nm of individual wells was measured using a microplate reader (BioRad 550). The percentage of viable cells was calculated as [(OD570 sample−OD655 sample)/(OD570 control−OD655 control)]×100%.
ARPE-19 cells were plated into 96-well plates (4×10^4 cells/well) and cultured for 24 h to reach confluence before lipophenol treatment. The cell cultures were treated with serum free medium containing lipophenols at different concentrations (0-80 μM) for 1 h. Then all-trans-retinal was added to a final concentration of 15 μM for 4 h, before rinsing with medium. Control cells were incubated with DMSO (0.2%)±all-trans-retinal. The cell viability was determined 16-20 h later using a MTT colorimetric assay. All samples are expressed as percentage of viability compared to non-treated and exposed to all-trans-retinal control cells. Non-treated and non-exposed to all-trans-retinal control cells are normalized at 100% survival.
The results on the measurement of anti-carbonyl stress activity will be discussed in % cell survival gain compared to cells stressed by trans-retinal (at 15 μM) and not treated with lipophenols. Any survival gain greater than +5% will be considered as a proven anti-carbonyl stress activity.

ARPE-19 cells [3] = assay: Protection of lipophenols against photoactivated A2E toxicity (MTT); settings: A2E 20 μM, blue light
Description: as §1, §2
ARPE-19 cells were plated into 96-well plates (4×10^4 cells/well) and cultured for 24 h to reach confluence before lipophenol treatment. The cell cultures were treated with serum free DMEM/F12 medium without phenol red containing lipophenols at different concentrations (0-80 μM) for 1 h. Then A2E was added to a final concentration of 20 μM for 6 h, before rinsing with medium. Control cells were incubated with DMSO (0.2%)+A2E. Cells were exposed to intense blue light (4600 LUX) for 30 min to induce phototoxicity of A2E and incubated at 37° C. The cell viability was determined 16-20 h later using a MTT colorimetric assay. All samples are expressed as percentage of viability compared to non-treated and exposed to A2E control cells. Non-treated and non-exposed to A2E control cells are normalized at 100% survival.
Photoactivation of A2E leads to its oxidation and can generate cytotoxic derivatives, in particular carbonyl derivatives responsible for carbonyl stress. Results on lipophenol protection against photoactivated A2E toxicity will be discussed in % cell survival gain compared to cells stressed by A2E and not treated by lipophenols. This additional evaluation was not performed for all synthesized lipophenolic derivatives but only a selection of them to discuss the results obtained.

ARPE-19 cells [4] = assay: Cytotoxicity of lipophenols on ARPE-19 cells (MTT); settings: 24 h; for toxicity (in words): concentrations up to 160 μM; for cell survival: compared to untreated cells (100%)
Description: as §2
(§3) ARPE-19 cells were plated into 96-well plates (4×10^4 cells/well) and cultured for 24 h to reach confluence before lipophenol treatment. […] Control cells were incubated with DMSO (0.2%). The viability of the cells was determined using a MTT colorimetric assay. All samples are expressed as percentage of viability compared to non-treated control cells (normalized at 100% survival).
(§4) Results on the measurement of lipophenol toxicity will be discussed in % cell survival at a given lipophenol concentration compared to untreated cells. […] Any concentration of lipophenol resulting in cell survival of less than 5% (zero survival) will be considered a highly toxic concentration.

[5] = Cytotoxicity of lipophenols on ARPE-19 cells (MTT); settings: human, ARPE-19 cells (retinal pigment epithelium), tested 0-160 μM, read-out: CC50 (cytotoxic concentration 50)
Description: as §2, §3, §4

CCCCC/C=C\C/C=C\CCCCCCCC(=O)O[C@H]1Cc2c(OC(C)C)cc(O)cc2O[C@@H]1c1ccc(O)c(O)c1 [C-3LA-5OiP, (9Z,12Z)-(2R,3S)-2-(3,4-dihydroxyphenyl)-7-hydroxy-5-isopropoxy-chroman-3-yl octadeca-9,12-dienoate]
gain of % of ROS production compared to non-stressed cells (ARPE-19 cells [1]; 80 μM lipophenol): +67%
cell survival gain (anti-carbonyl stress activity) (ARPE-19 cells [2]; 80 μM lipophenol): +9%
cell survival gain against photoactivated A2E (ARPE-19 cells [3]; concentration not given): +30%

CCCCC/C=C\C/C=C\CCCCCCCC(=O)O[C@H]1Cc2c(O)cc(OC(C)C)cc2O[C@@H]1c1ccc(O)c(O)c1 [C-3LA-7OiP, (9Z,12Z)-(2R,3S)-2-(3,4-dihydroxyphenyl)-5-hydroxy-7-isopropoxy-chroman-3-yl octadeca-9,12-dienoate]
gain of % of ROS production compared to non-stressed cells (ARPE-19 cells [1]; 80 μM lipophenol): +37%
cell survival gain (anti-carbonyl stress activity) (ARPE-19 cells [2]; 40 μM lipophenol): +27%
concentration from which cell survival is zero (highly toxic concentration) (ARPE-19 cells [4]): 80 µM

CC(C)Oc1cc(O)cc2c1C[C@H](O)[C@@H](c1ccc(O)c(O)c1)O2 [C-50iP, reference compound]
increase in ROS compared to non-stressed cells (ARPE-19 cells [1]): 0%
anti-carbonyl stress activity (in words) (ARPE-19 cells [2]): no anti-carbonyl stress activity
toxicity (in words) (ARPE-19 cells [4]): no toxicity

CC(C)Oc1cc(O)c2c(c1)O[C@H](c1ccc(O)c(O)c1)[C@@H](O)C2 [C-70iP, reference compound]
increase in ROS compared to non-stressed cells (ARPE-19 cells [1]): 0%
anti-carbonyl stress activity (in words) (ARPE-19 cells [2]): no anti-carbonyl stress activity
toxicity (in words) (ARPE-19 cells [4]): no toxicity

CC/C=C\C/C=C\C/C=C\CCCCCCCC(=O)Oc1c(-c2ccc(O)c(O)c2)oc2cc(O)cc(OC(C)C)c2c1=O [Q-3ALA-5OiP, (9Z,12Z,15Z)-7-hydroxy-2-(3,4-dihydroxyphenyl)-5-isopropoxy-4-oxo-4H-chromen-3-yl octadeca-9,12,15-trienoate]
cell survival gain (anti-carbonyl stress activity) (ARPE-19 cells [2]; 40 μM lipophenol): +24%
concentration from which cytotoxicity is induced (ARPE-19 cells [4]): 60 µM

CC/C=C\C/C=C\C/C=C\CCCCCCCC(=O)Oc1c(-c2ccc(O)c(O)c2)oc2cc(OC(C)C)cc(O)c2c1=O [Q-3ALA-7OiP, (9Z,12Z,15Z)-5-hydroxy-2-(3,4-dihydroxyphenyl)-7-isopropoxy-4-oxo-4H-chromen-3-yl octadeca-9,12,15-trienoate]
cell survival gain (anti-carbonyl stress activity) (ARPE-19 cells [2]; 80 μM lipophenol): +29%
toxicity (in words) (ARPE-19 cells [4]): no toxicity
cell survival gain against photoactivated A2E (ARPE-19 cells [3]; 80 μM lipophenol, compared to stressed untreated cells): +77%

CC/C=C\C/C=C\C/C=C\C/C=C\C/C=C\C/C=C\CCC(=O)Oc1c(-c2ccc(O)c(O)c2)oc2cc(O)cc(O)c2c1=O [Q-3DHA, (4Z,7Z,10Z,13Z,16Z,19Z)-2-(3,4-dihydroxyphenyl)-5,7-dihydroxy-4-oxo-4H-chromen-3-yl docosa-4,7,10,13,16,19-hexaenoate]
cell survival gain, maximum protection (ARPE-19 cells [2]; 60 μM lipophenol): +21%
CC50 at 24 h [5]: < 160 µM

CC/C=C\C/C=C\C/C=C\C/C=C\C/C=C\C/C=C\CCC(=O)Oc1c(-c2ccc(O)c(O)c2)oc2cc(O)cc(OC(C)C)c2c1=O [Q-3DHA-5OiP, (4Z,7Z,10Z,13Z,16Z,19Z)-7-hydroxy-2-(3,4-dihydroxyphenyl)-5-isopropoxy-4-oxo-4H-chromen-3-yl docosa-4,7,10,13,16,19-hexaenoate]
cell survival gain (anti-carbonyl stress activity) (ARPE-19 cells [2]; 40 μM lipophenol): +27%
concentration from which cytotoxicity is induced (ARPE-19 cells [4]): 60 µM
CC50 at 24 h [5]: > 40 µM

CC/C=C\C/C=C\C/C=C\C/C=C\C/C=C\C/C=C\CCC(=O)Oc1c(-c2ccc(O)c(O)c2)oc2cc(OC(C)C)cc(O)c2c1=O [Q-3DHA-7OiP, (4Z,7Z,10Z,13Z,16Z,19Z)-5-hydroxy-2-(3,4-dihydroxyphenyl)-7-isopropoxy-4-oxo-4H-chromen-3-yl docosa-4,7,10,13,16,19-hexaenoate]
cell survival gain (anti-carbonyl stress activity) (ARPE-19 cells [2]; 80 μM lipophenol): +29%
toxicity (in words) (ARPE-19 cells [4]): no toxicity
cell survival gain against photoactivated A2E (ARPE-19 cells [3]; as early as 20 μM lipophenol (plateau)): +62%

CCCCC/C=C\C/C=C\CCCCCCCC(=O)Oc1c(-c2ccc(O)c(O)c2)oc2cc(O)cc(O)c2c1=O [Q-3LA, (9Z,12Z)-2-(3,4-dihydroxyphenyl)-5,7-dihydroxy-4-oxo-4H-chromen-3-yl octadeca-9,12-dienoate]
cell survival gain, maximum protection (ARPE-19 cells [2]; 20 μM lipophenol): +9%
cell survival (ARPE-19 cells [4]; 80 μM lipophenol): 156%
cell survival (ARPE-19 cells [4]; 160 μM lipophenol): 124%
cell survival gain against photoactivated A2E (ARPE-19 cells [3]; from 60 μM lipophenol): +48%

CCCCC/C=C\C/C=C\CCCCCCCC(=O)Oc1c(-c2ccc(O)c(O)c2)oc2cc(O)cc(OC(C)C)c2c1=O [Q-3LA-5OiP, (9Z,12Z)-7-hydroxy-2-(3,4-dihydroxyphenyl)-5-isopropoxy-4-oxo-4H-chromen-3-yl octadeca-9,12-dienoate]
cell survival gain (anti-carbonyl stress activity) (ARPE-19 cells [2]; 40 μM lipophenol): +34%
cell survival gain (anti-carbonyl stress activity) (ARPE-19 cells [2]; 80 μM lipophenol): +49%
CC50 at 24 h [5]: < 80 µM

CCCCC/C=C\C/C=C\CCCCCCCC(=O)Oc1c(-c2ccc(O)c(O)c2)oc2cc(OC(C)C)cc(O)c2c1=O [Q-3LA-7OiP, (9Z,12Z)-5-hydroxy-2-(3,4-dihydroxyphenyl)-7-isopropoxy-4-oxo-4H-chromen-3-yl octadeca-9,12-dienoate]
cell survival gain (anti-carbonyl stress activity) (ARPE-19 cells [2]; 80 μM lipophenol): +38%
cell survival (ARPE-19 cells [4]; 160 μM lipophenol): 153%
cell survival gain against photoactivated A2E (ARPE-19 cells [3]; from 40 μM lipophenol (plateau)): +86%

CC(C)Oc1cc(O)cc2oc(-c3ccc(O)c(O)c3)c(O)c(=O)c12 [Q-50iP, reference compound]
gain of % of ROS production compared to non-stressed cells (ARPE-19 cells [1]; 80 μM lipophenol): +46%
anti-carbonyl stress activity (in words) (ARPE-19 cells [2]): did not show anti-carbonyl stress potency
cell survival (ARPE-19 cells [4]; 160 μM lipophenol): 72%
toxicity (in words) (ARPE-19 cells [4]): almost no toxicity

CC(C)Oc1cc(O)c2c(=O)c(O)c(-c3ccc(O)c(O)c3)oc2c1 [Q-70iP, reference compound]
gain of % of ROS production compared to non-stressed cells (ARPE-19 cells [1]; 20 μM lipophenol): +31%
anti-carbonyl stress activity (in words) (ARPE-19 cells [2]): did not show anti-carbonyl stress potency
concentration from which cell survival is zero (highly toxic concentration) (ARPE-19 cells [4]): 40 µM
toxicity (in words) (ARPE-19 cells [4]): very important cytotoxicity even at low concentration

Oc1cc(O)cc(O)c1 [phloroglucinol, reference compound]
gain of % of ROS production compared to non-stressed cells (ARPE-19 cells [1]; 80 μM lipophenol): +50%
anti-carbonyl stress activity (in words) (ARPE-19 cells [2]): no survival gain
cell survival (ARPE-19 cells [4]; 160 μM lipophenol): 61%
protection against photoactivated A2E (in words) (ARPE-19 cells [3]; up to 80 μM lipophenol): no cell protection

(+)-catechin [reference compound]
increase in ROS compared to non-stressed cells (ARPE-19 cells [1]): 0%
anti-carbonyl stress activity (in words) (ARPE-19 cells [2]): no anti-carbonyl stress activity
